Where two headings read alike, the source gives them in different places.
Assays:
VERO-E6 cells = assay: Cytotoxicity on VERO-E6 cells (data not shown); format: cell-based
A549 cells = assay: Cytotoxicity on A549 cells (data not shown); format: cell-based
[1] = system: human foreskin fibroblasts HFF-BJ (ATCC CRL-2522 cells); assay: MTT cytotoxicity / cell viability assay; format: cell-based; conditions: 0.1 to 50 μM, 72 h
Description: Cell viability as visualized by fold change of formazan-positive cells normalized to the untreated control and DMSO. Viability reduced below 40% represents the cytotoxic zone, below the dotted line in each plot. The number of biological replicates is indicated.
Human foreskin fibroblasts (HFF), a type of primary fibroblast derived from neonatal foreskin tissue, were chosen for this bioassay due to their distinct advantages in studies involving HCMV. For instance, the HHF cells provide a relevant and effective platform due to their unique susceptibility to HCMV infection, ability to mimic human immune responses, and relevance to clinical scenarios. […] HFF cells were incubated with each compound at concentrations ranging from 0.1 to 50 μM and any possible cytotoxic effect was monitored for 72 h. Tested compounds were dissolved in dimethyl sulfoxide (DMSO). […] The cytotoxic effect (CTE) is represented here as the concentration that causes a reduction of more than 40% in the number of viable cells.
Cells were seeded in a 96-well plate at a density of 1 × 10^4 cells per well for the measurement of cytotoxicity of the compounds (without UVA irradiation). […] Cells after treatment were incubated for […]. Untreated cells were considered negative control, and DMSO-treated cells (at appropriate concentration) were considered vehicle control. The classical MTT assay (3-(4,5-dimethyl thiazolyl-2)-2,5-diphenyltetrazolium bromide) ([68]) was used to measure cellular metabolic activity as an indicator of cell viability, proliferation, and cytotoxicity. Briefly, 0.5 mg/ml MTT solution was dispensed in each well of the 96-well plate and incubated for 4 h. Afterward, the MTT solution was removed and 200 μl of 100% DMSO was added to each well and the plate was placed on a microplate shaker for 5 min to dissolve the formazan granules. The absorbance was measured at 550 nm using a spectrophotometer. DMSO and MTT were purchased from Thermo Fisher Scientific. The darker the solution, the greater the number of viable, metabolically active cells. All experimental compounds were measured using at least 2 to 3 replicates for each and the averaged values from three independent experiments (n = 3) are presented. Cell viability was visualized by fold change of formazan-positive cells normalized to the untreated control and DMSO. Viability reduced below 40% represents the cytotoxic zone. All evaluations were performed using GraphPad Prism 9.5.0 (GraphPad Software, LLC), if other software was not explicitly mentioned.

HCMV UL141 [2] = molecular target: T1, HCMV UL141 (Human cytomegalovirus, UniProt Q6RJQ3); assay: biochemical; format: binding; conditions: for Rmax / koff / kon: UL141 immobilized, substance as analyte
T1 construct: we expressed and purified the full-length recombinant UL141 (amino acids 30–300); made in house
Procedure: (§1) To prepare HCMV UL141 for binding studies, biotinylation was performed using the BiotinTag Micro Biotinylation Kit (Sigma-Aldrich). Purified UL141 protein (50 μg in 50 μl) was mixed with 50 μl of BiotinTag reaction buffer provided in the kit. Sulfo-NHS-Biotin reagent was freshly prepared by dissolving the vial contents in 1 ml of sterile water. A calculated volume of the biotin reagent was added to achieve a 20:1 M excess of biotin to protein. The reaction mixture was incubated for 30 min at room temperature with gentle mixing to ensure efficient labeling. Following incubation, unreacted biotin was removed using the desalting column included in the kit. The biotinylated UL141 protein was eluted in 50 mM Hepes, pH 7.5, 150 mM NaCl. Biotin incorporation was verified using a colorimetric biotin quantification assay (e.g., HABA assay). The biotinylated protein was then quantified spectrophotometrically using a NanoDrop instrument and concentrated to the desired level for Biacore or ELISA binding studies. The biotinylated protein was stored at 4 °C for short-term use or −80 °C for long-term storage to maintain stability.
(§2) The sensor surface of an SA chip (Cytiva) was preconditioned with HBS-EP buffer (10 mM Hepes, 150 mM NaCl, 3 mM EDTA, 0.005% Tween-20) to stabilize the baseline and remove any loosely bound streptavidin. Before use, the buffer was filtered through a 0.2 μm polystyrene filter and degassed under vacuum for 10 min to eliminate air bubbles. Biotinylated HCMV UL141 was immobilized on the SA chip, maintaining biotinylation at 0.5 to 1.5 mol per mole of protein. Excess biotin was removed via gel filtration. UL141 was injected at 30 μl/min, achieving maximum immobilization (4000–6000 RU), followed by washing with running buffer. Residual unbound proteins were optionally removed with a 2 M NaCl pulse. To ensure optimal SPR signal detection, which depends on the analyte mass bound to the ligand, relatively high amounts of ligand were immobilized on the sensor chip to achieve a significant response signal upon binding of the small compound. […] Regeneration of the chip surface, when necessary, was performed using 5 mM NaOH. Control injections of zero concentrations and duplicate injections of selected concentrations were included to validate surface regeneration. […]

UL141 = conditions: cited from earlier work; for Kd: UL141 (ectodomain) in solution
HCMV UL141 [3] = molecular target: T2, HCMV UL141 (Human cytomegalovirus, UniProt Q6RJQ3); assay: biochemical; format: binding
T2 construct: we expressed and purified the full-length recombinant UL141 (amino acids 30–300); made in house
T2 sequence (Q6RJQ3 whole entry, looked up): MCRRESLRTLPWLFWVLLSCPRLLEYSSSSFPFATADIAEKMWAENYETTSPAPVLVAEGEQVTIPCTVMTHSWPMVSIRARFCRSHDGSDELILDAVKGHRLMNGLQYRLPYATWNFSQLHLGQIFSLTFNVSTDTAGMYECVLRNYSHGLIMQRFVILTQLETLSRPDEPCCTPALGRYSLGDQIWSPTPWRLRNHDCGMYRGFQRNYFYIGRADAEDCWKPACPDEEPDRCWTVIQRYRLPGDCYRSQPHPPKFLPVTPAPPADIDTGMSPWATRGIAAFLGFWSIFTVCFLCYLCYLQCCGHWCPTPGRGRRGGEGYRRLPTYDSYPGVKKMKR
Procedure: as §1, §2

[4] = molecular target: TRAIL-R2-Fc (Homo sapiens) (UniProt O14763); assay: SPR; conditions: cited from earlier work
TRAIL-R2 (Homo sapiens) = TRAIL-R2 (Homo sapiens) (UniProt O14763); assay: SPR; conditions: cited from earlier work
[5] = UL141 immobilized (ligand), substance in solution (analyte), 1:1 Langmuir model, 25 °C
[6] = 1:1 Langmuir model, listed as cmp 15
[7] = 1:1 Langmuir model, listed as cmp 20
[8] = TRAIL-R2-Fc immobilized, ref ([19])
[9] = TRAIL-R2-Fc immobilized, UL141 in solution, ref ([19])
[10] = UL141-Fc immobilized, TRAIL-R2 in solution, ref ([17])

Compound	concentration at which cytotoxicity with apoptotic properties begins (VERO-E6 cells)	concentration at which cytotoxicity with apoptotic properties begins (A549 cells)	cytotoxicity (in words) [1]	Kd (HCMV UL141 [2]; [5])	Rmax (HCMV UL141 [2])	koff (HCMV UL141 [2]; 1:1 Langmuir model)	kon (HCMV UL141 [2]; 1:1 Langmuir model)	further results
CCCCCCCCCCCCCCO[C@@H]1O[C@H](CO)[C@@H](O)[C@H](O)[C@H]1O [Compound 1]	≥ 5000 ng/mL	≥ 5000 ng/mL						
CCCCCCCCCCCCCCO[C@@H]1O[C@H](CO)[C@H](O)[C@H](O)[C@H]1O [Compound 3]	≥ 5000 ng/mL	≥ 5000 ng/mL						
CCCCCCCCCCCCCCO[C@H]1O[C@H](CO)[C@@H](O)[C@H](O)[C@@H]1O [Compound 5]	≥ 5000 ng/mL	≥ 5000 ng/mL	unfavorable level of cytotoxicity					
CCCCCCCCCCCCN1C[C@H](O)[C@H](O)[C@@H]1CO [Compound 9]	≥ 5000 ng/mL	≥ 5000 ng/mL	unfavorable level of cytotoxicity					
C[C@H](O)[C@H]1[C@@H](O)[C@@H](O)CN1Cc1ccc(I)cc1 [Compound 14, (2S,3R,4S)-2-((S)-1-hydroxyethyl)-1-(4-iodobenzyl)pyrrolidine-3,4-diol]			no cytotoxicity was detected	24 µM	24	0.153 s⁻¹	6370 M⁻¹ s⁻¹	Kd (HCMV UL141 [2]; binding to UL141, SPR): 24 µM; kon (HCMV UL141 [2]; 1:1 Langmuir model, listed as cmp 14): (0.63 ± 0.002) × 10^4 M^−1s^−1
CC(O)C1C(O)C(O)CN1Cc1ccccc1 (stereo not shown) [Compound 15]			no cytotoxicity was detected	200 µM	27	0.117 s⁻¹	586 M⁻¹ s⁻¹	Kd (HCMV UL141 [2]; binding to UL141, SPR): 199 µM; koff (HCMV UL141 [2]; [6]): (1.17 ± 0.004) × 10^−1 s^−1; kon (HCMV UL141 [2]; [6]): (0.06 ± 0.002) × 10^4 M^−1s^−1
CC(O)C1C(O)C(O)CN1Cc1ccc(I)cc1 (stereo not shown) [Compound 17]			no cytotoxicity was detected	20.3 µM	20	0.0508 s⁻¹	2500 M⁻¹ s⁻¹	koff (HCMV UL141 [2]; 1:1 Langmuir model, listed as cmp 17): (0.51 ± 0.001) × 10^−1 s^−1
CC1C(O)C(O)CN1Cc1ccc(I)cc1 (stereo not shown) [Compound 20]			no cytotoxicity was detected	29.1 µM	21	0.0879 s⁻¹	3020 M⁻¹ s⁻¹	Kd (HCMV UL141 [2]; binding to UL141, SPR): 29 µM; koff (HCMV UL141 [2]; [7]): (0.88 ± 0.015) × 10^−1 s^−1; kon (HCMV UL141 [2]; [7]): (0.30 ± 0.007) × 10^4 M^−1s^−1
TRAIL-R2-Fc: TRAIL-R2 recombinantly prepared as an Fc-fusion protein								Kd (UL141; [8]): 0.00596 µM; koff (UL141; [9]): 7.21e-05 s⁻¹; kon (UL141; [9]): 12100 M⁻¹ s⁻¹
TRAIL-R2: recombinant human TRAIL death receptor 2 ectodomain (amino acids 58–184), positive control in SPR								Rmax (HCMV UL141 [3]; UL141 immobilized, substance as analyte): 872; Kd (HCMV UL141 [3]; full-length UL141 and TRAIL-R2, SPR, read-out: affinity (KD)): 0.00599 µM; Kd (UL141; [8]): 0.00596 µM; koff (UL141; [10]): 0.00564 s⁻¹; kon (UL141; [10]): 264000 M⁻¹ s⁻¹
UL141 ECD (from UniProt Q6RJQ3)								Kd [4]: 0.00596 µM
UL141-Fc (from UniProt Q6RJQ3)								Kd (TRAIL-R2 (Homo sapiens)): 0.0214 µM

From publication PMC12140054, “Small glycomimetic antagonists of the cytomegalovirus glycoprotein UL141 prevent binding to TRAIL death receptor” (The Journal of Biological Chemistry, 2025)
